# According to patent US20210163489A1, “PYRAZOLOPYRIMIDINE DERIVATIVES AND THE COMPOSITIONS AND METHODS OF TREATMENT REGARDING THE SAME” (NysnoBio Ireland DAC, priority 2016, published 2021):
# “And” between values parts separate entries of the source, which are not always exact repeats. Equal entries are not always repeated.
# Molecular target: T1, Parkin ligase (Homo sapiens, UniProt O60260)
# T1 construct: Enzyme: Parkin-His tagged 203 μM (10.5 mg/ml)
# T1 sequence (O60260 1-465): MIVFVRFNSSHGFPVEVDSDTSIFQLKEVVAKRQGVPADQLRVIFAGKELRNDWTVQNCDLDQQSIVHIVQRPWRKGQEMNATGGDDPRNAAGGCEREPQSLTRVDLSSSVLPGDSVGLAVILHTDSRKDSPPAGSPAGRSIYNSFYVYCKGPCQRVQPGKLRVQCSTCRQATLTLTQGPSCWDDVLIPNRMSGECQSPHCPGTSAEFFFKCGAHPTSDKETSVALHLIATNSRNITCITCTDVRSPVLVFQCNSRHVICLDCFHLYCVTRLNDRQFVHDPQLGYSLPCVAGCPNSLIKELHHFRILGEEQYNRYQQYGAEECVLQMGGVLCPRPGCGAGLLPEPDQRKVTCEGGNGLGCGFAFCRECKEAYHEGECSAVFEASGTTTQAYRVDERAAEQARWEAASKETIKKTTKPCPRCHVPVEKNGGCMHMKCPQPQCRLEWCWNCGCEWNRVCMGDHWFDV
# Assay: Activity-based probe assay using an ubiquitin vinyl sulfone probe (TR-FRET)
# Format: biochemical
# Conditions: activation of heat activated Parkin, HA-Ub-VS probe; read-out: Probe Assay EC50 (μM) [Example 2]
# Method: An Ubiquitin vinyl sulfone probe can be used that irreversibly binds to the active site cysteine of Parkin ligase. Covalent attachment of the probe to the Parkin can be monitored by TR-FRET. Candidate activator compounds can be identified by increasing the activity of Parkin ligase due to an increase in TR-FRET signal. Screening for activating compounds can be distinguished from the controls as follows:
# 100% activation signal=Heat activated Parkin+100 nM control activator in DMSO. 0% activation signal=Heat activated Parkin+DMSO only. Parkin activators can be identified by an increase of the 0% activation signal TR-FRET signal.
# • Assay Plate: White 384 well plate (Corning 3572) • Enzyme: Parkin-His tagged 203 μM (10.5 mg/ml) • Probe: Ubiquitin vinyl-sulfone (HA-Ub-VS Boston Biochem U-212) • DMSO: DMSO (Sigma cat # D4540-100ML) • Reaction Buffer: 50 mM HEPES (pH 8.5), 150 mM NaCl, 0.01% Tween 20, 0.1% BSA • Detection Buffer: 50 mM HEPES (pH 8.5), 150 mM NaCl, 0.01% Tween 20, 0.1% BSA, 800 mM KF • Detection Reagent A: 2.6 nM Anti-6HIS-Eu cryptate and 40 nM Anti-HA-XL665 in detection buffer • Eu cryptate: Anti-6HIS-Eu cryptate (CisBio 61HISKLA) • XL665: Anti-HA-XL665 (CisBio 610HAXLA) Enzyme Reaction (15 min Pre Incubation Parkin with Activator Only) • Parkin: 40 nM • HA-Ub-VS Probe: 70 nM • Activator/DMSO: 2× Activator/2% DMSO • Reaction time: 60 minutes • Temperature: 22° C. • Total volume: 10 μl reaction
# • Take 10 μl of Enzyme Reaction above and add 10 μl detection Reagent A under the following conditions: • Reaction time: 60 minutes • Temperature: 22° C. • Total volume: 20 μl
# Assay procedure (Using HP D-300 compound dispenser and Bravo for the operation):
# 1) Heat activate Parkin in reaction buffer (500 μl/1.5 ml tube: Eppendorf Thermomixer 5 minutes, 400 rpm at 58° C. and put on ice until needed). 2) Load assay plate wells with 4.8 μl 84.5 nM Parkin in reaction buffer by use of Bravo. 3) Deliver 0.2 μl 200× activator candidates in DMSO by use of HP D-300 compound dispenser. Highest 200× concentration=20 μm and then twofold dilutions. 4) Spin 1000 rpm, 2 minutes, at room temp. 5) Incubate plate for 15 minutes at room temp. 6) Add 5 μl 140 nM HA-Ub-VS Probe in reaction buffer by use of Bravo. 7) Spin 1000 rpm, 2 minutes, at room temp. 8) Incubate plate for 60 minutes at room temp. 9) Add 10 μl 2.6 nM Anti-6HIS-Eu cryptate and 40 nM Anti-HA-XL665 in detection buffer. 10) Spin 1000 rpm, 2 minutes, at room temp. 11) Incubate plate for 60 minutes at room temp. 12) Read plates on Perkin Elmer Envision instrument with the following parameters:
# LANCE dual laser protocol loaded into the Envision® software
# Top Mirror: LANCE/DELFIA Duel/Bias (Bar code 446) Emission Filter: APC 665 EM (Bar code 205) 2nd Emission Filter: Europium 615 EM (Bar code 203) Read […] (channel 1) and 615 nm (channel 2) wavelengths on Envision®
# Data Analysis: The Data can be read in CSV files. There are two tables in those CSV files, which are the values of 655 nm (channel 1) and 615 nm (channel 2) wavelengths respectively. The data is converted to an HTRF Ratio=(Channel 1/Channel 2)*10,000
# The average of all the 0 uM controls (DMSO only)=BKGD (Background—0% activation). Subtract BKGD from each HTRF Ratio value=HTRF-BKGD. The average of all the […] 100 nM control activator in DMSO controls=Max (100% activation). The following equation is then used to calculate % Activation for each well/candidate as follows: % Activation=(HTRF−BKGD/Max)*100.
# Graphpad Prisim was used with Transform X values: X=Log(X) and nonlinear regression (dose-response-stimulation): Log(agonist) vs Response—variable slope (four parameters) with constrains set to Bottom=0 and Top=100.
row,EC50,Compound
1,> 100 µM,Cc1cc(C)c2c(n1)nn1c(O)c(Cc3ccccc3)c(C)nc21 [NN]
2,51 µM,Cc1ccc(-c2cnn3c(O)cc(C)nc23)cc1 [Compound H3]
3,46 µM,COc1ccc(Cn2ccc(-c3cnn4c(S)cc(C)nc34)cc2=O)cc1 [Compound B3]
4,18.2 µM,"Cc1cc2nc(C)c(Cc3ccc(Cl)cc3)c(S)n2n1 [Compound R, 6-[(4-chlorophenyl)methyl]-2,5-dimethyl-pyrazolo[1,5-a]pyrimidine-7-thiol]"
5,> 100 µM,Cc1nc2c(-c3ccccc3)c(C)nn2cc1Cc1ccccc1 [QQ]
6,> 100 µM,Cc1nc2c(C#N)c(C)nn2c(S)c1Cc1ccccc1 [OO]
7,> 100 µM,CNc1c2c(nc3c(-c4ccccc4)c(C)nn13)CCN(C)C2 [YY]
8,6.5 µM,"Cc1nn2c(S)c(Cc3ccccc3)cnc2c1-c1ccccc1 [Compound DD, 6-benzyl-2-methyl-3-phenyl-pyrazolo[1,5-a]pyrimidin-7-thiol]"
9,> 100 µM,Cc1nc2c(-c3cccnc3)c(C)nn2c(O)c1Cc1ccccc1 [Compound L3]
10,> 100 µM,"Cc1nc2c(C#N)c(C)nn2c(O)c1Cc1ccccc1 [Compound GG, 6-benzyl-7-hydroxy-2,5-dimethyl-pyrazolo-[1,5-a]pyrimidine-3-carbonitrile]"
11,> 100 µM,Cc1cc(S)n2nc(C)c(-c3ccc(Cl)cc3)c2n1 [N]
12,> 100 µM,Cc1nc2c(C3CCN(C)CC3)c(C)nn2c(S)c1Cc1ccccc1 [Compound N3]
13,> 100 µM,Cc1nc2c(C(=O)N(C)C)c(C)nn2c(O)c1Cc1ccccc1 [EE]
14,49.1 µM,Cc1nc2c(-c3ccccc3)c(C)nn2c(O)c1Cc1ccccc1 [T]
15,> 100 µM,Cc1nc2c(C3CCN(C)CC3)c(C)nn2c(O)c1Cc1ccccc1 [Compound O3]
16,71 µM,Cc1nn2c(S)c3c(nc2c1-c1ccccc1)CCOC3 [WW]
17,27.3 µM,Cc1cc(C)c2c(n1)nn1c(S)c(Cc3ccccc3)c(C)nc21 [RR]
18,3.3 µM and 3.6 µM,Cc1nn2c(S)c3c(nc2c1-c1ccccc1)CCCC3 [Compound K]
19,> 100 µM,Cc1nn2c(O)c3c(nc2c1-c1ccccc1)CCN(C)C3 [Compound K3]
20,> 100 µM,Cc1cc(S)n2ncc(-c3cc[nH]c(=O)c3)c2n1 [Compound A3]
21,34.1 µM,Cc1nc2c(C(F)(F)F)c(C)nn2c(S)c1Cc1ccccc1 [LL]
22,16.7 µM,Cc1nn2c(O)cc(C(C)(C)C)nc2c1-c1ccc(Cl)cc1 [F]
23,> 100 µM,"Cc1nc2c(-c3ccccc3)c(C)nn2c(O)c1Cc1ccncc1 [Compound X, 2,5-dimethyl-3-phenyl-6-(4-pyridylmethyl)pyrazolo[1,5-a]pyrimidin-7-ol]"
24,> 100 µM,Cc1ccc(-c2cnn3c(O)c4c(nc23)CN(C)CC4)cc1 [Compound P3]
25,75.3 µM,Cc1cc(S)n2ncc(-c3ccccc3)c2n1 [Compound C]
26,> 100 µM,COc1ccc(-c2cnn3c(O)cc(C)nc23)cc1 [Compound J3]

row,EC50,Compound
1,53.5 µM,CC(C)(C)c1cc(O)n2ncc(-c3ccc(Cl)cc3)c2n1 [Compound G]
2,> 100 µM,Cc1nn2c(S)cc(C(C)C)nc2c1-c1ccccc1 [H]
3,> 100 µM,CCc1nn2c(S)cc(C)nc2c1-c1ccc(F)cc1 [Compound I]
4,> 100 µM,Cc1cc(O)n2nc(C)c(-c3ccc(Cl)cc3)c2n1 [M]
5,> 100 µM,COc1ccccc1-c1c(C)nn2c(S)cc(C)nc12 [Compound D]
6,14.9 µM,"Cc1nc2c(-c3ccccc3)c(C)nn2c(S)c1Cc1ccccn1 [Compound BB, 2,5-dimethyl-3-phenyl-6-(2-pyridylmethyl)pyrazolo[1,5-a]pyrimidine-7-thiol]"
7,27.9 µM,Cc1cc2nc(C)c(Cc3ccccc3)c(S)n2n1 [S]
8,> 100 µM,Cc1nc2c(C(F)(F)F)c(C)nn2c(O)c1Cc1ccccc1 [JJ]
9,> 100 µM,CCCc1cc(S)n2nc(C)c(-c3ccccc3)c2n1 [Compound B]
10,7.6 µM,Cc1nc2c(-c3ccncc3)c(C)nn2c(S)c1Cc1ccccc1 [MM]
11,> 100 µM,Cc1cc(O)n2ncc(-c3ccc(F)cc3)c2n1 [PP]
12,55.6 µM,Cc1nn2c(S)c3c(nc2c1-c1ccccc1)COC3 [XX]
13,> 100 µM,"Oc1c(Cc2ccccc2)cnc2c(-c3ccccc3)cnn12 [Compound W, 6-benzyl-3-phenyl-pyrazolo[1,5-a]pyrimidin-7-ol]"
14,61.4 µM,"Cc1cc2nc(C)c(Cc3ccc(Cl)cc3)c(O)n2n1 [Compound P, 6-[(4-chlorophenyl)methyl]-2,5-dimethyl-pyrazolo[1,5-a]pyrimidin-7-ol]"
15,> 100 µM,Cc1nn2c(O)c(CC(C)C)cnc2c1-c1ccccc1 [Compound I3]
16,35.4 µM,CC(C)(C)c1cc(O)n2ncc(-c3ccccc3)c2n1 [J]
17,> 100 µM,"Cc1nc2c(-c3ccccc3)c(C)nn2c(O)c1Cc1ccccn1 [Compound Y, 2,5-dimethyl-3-phenyl-6-(2-pyridylmethyl)pyrazolo[1,5-a]pyrimidin-7-ol]"
18,> 100 µM,Cc1cc2nc(C)c(Cc3ccccc3)c(O)n2n1 [Q]
19,> 100 µM,Cc1cc(S)n2ncc(-c3cnn(C)c3)c2n1 [VV]
20,17.8 µM,Cc1nc2c(-c3ccccn3)c(C)nn2c(O)c1Cc1ccccc1 [FF]
21,96.3 µM,Cc1cc(O)n2ncc(-c3cccc(N(C)C)c3)c2n1 [Compound M3]
22,> 100 µM,Cc1cc(S)n2nc(C)c(-c3ccccc3)c2n1 [O]
23,74.2 µM,Cc1nc2c(-c3ccccn3)c(C)nn2c(S)c1Cc1ccccc1 [HH]
24,> 100 µM,Cc1nc2c(C(=O)N(C)C)c(C)nn2c(S)c1Cc1ccccc1 [II]
25,5.9 µM,"Sc1c(Cc2ccccc2)cnc2c(-c3ccccc3)cnn12 [Compound Z, 6-benzyl-3-phenyl-pyrazolo[1,5-a]pyrimidin-7-thiol]"
26,> 100 µM,"Cc1nn2c(O)c(Cc3ccccc3)cnc2c1-c1ccccc1 [Compound V, 6-benzyl-2-methyl-3-phenyl-pyrazolo[1,5-a]pyrimidin-7-ol]"
